Here are results for one compound from publication PMC5931996 (Scientific Reports, 2018).

The target in one data set is T1, human 5-HT2C receptor (Homo sapiens, UniProt P28335).
T1 construct: expressed in transfected cells; host or cells: HEK-293
T1 sequence (P28335 33-458): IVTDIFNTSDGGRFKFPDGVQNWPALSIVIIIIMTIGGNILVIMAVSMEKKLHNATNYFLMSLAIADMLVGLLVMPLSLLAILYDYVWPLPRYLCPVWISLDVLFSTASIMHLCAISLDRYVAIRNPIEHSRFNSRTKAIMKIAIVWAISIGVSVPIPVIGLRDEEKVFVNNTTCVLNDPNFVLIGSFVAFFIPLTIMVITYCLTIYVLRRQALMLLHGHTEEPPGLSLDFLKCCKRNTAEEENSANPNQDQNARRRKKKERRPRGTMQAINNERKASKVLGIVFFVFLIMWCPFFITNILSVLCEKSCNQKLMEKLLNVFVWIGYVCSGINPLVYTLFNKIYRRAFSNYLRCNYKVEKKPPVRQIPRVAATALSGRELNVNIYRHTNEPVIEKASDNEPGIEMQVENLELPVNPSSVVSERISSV
The data set can be described thus: Radioligand binding assay, 5-HT2C receptor. Conditions: radioligand displacement, transfected HEK-293 cells; read-out: Receptor binding affinity (Ki), 5-HT2C. The protocol:
(§1) The affinity of compounds for the human dopamine D2, D3, D4, 5-HT2A, 5-HT2B, 5-HT2C, 5-HT6, 5-HT7, H1, α1A, and α1B receptors in transfected HEK-293 cells was determined using a radioligand binding assay. Cell membrane homogenates were incubated in the absence or presence of the test compound in a buffer. Nonspecific binding was measured in the presence of the standard reference compound. Following incubation, samples were rapidly filtered under a vacuum through glass fibre filters (GF/B, Packard) presoaked with 0.3% PEI and rinsed several times with ice-cold 50 mM Tris-HCl using a 96-sample cell harvester (Unifilter, Packard). Filters were dried and then radioactivity was counted in a scintillation counter (Topcount, Packard) using a scintillation cocktail (Microscint 0, Packard). The results are expressed as percent inhibition of the specific binding of the radioligand in the control. The standard reference compound was tested in each experiment at several concentrations to obtain a competition curve from which its Ki was calculated.

In another data set the test system is mice. The experiment in a line: Forelimb catalepsy in mice. Conditions: NIH, mouse, in vivo, po, 1 h. As for the experimental part:
Then each mouse was positioned such that both front paws rested on a […] diameter steel rod (covered with non-slippery tape) placed 3.5 cm above the surface of the bench. The period of time that each mouse maintained this position was recorded. The experiment was repeated at least 10 times. Finally, the longest period of catalepsy for each mouse was recorded.

The test system of data set [1] is 5-HTP-induced head twitches in rats. The data set can be described thus: 5-HTP-induced head twitch. Type of data set: in vivo, SD rats. The following applies: 5-HTP 320 mg/kg i.p., 40–70 min after injection, mean ± S.E.M. The protocol:
SD rats (200–250 g, 8 animals/ group) were housed in the test room for at least 1 h before the experiment. […] Then, all animals were intraperitoneally injected with 0.9% saline or 5-HTP (320 mg/kg) 40 min before the test. The number of head twitches was recorded during a period of 40–70 min after intraperitoneal injection.

The subject of data set [2] is MK-801-treated rats. The experiment in a line: Morris water maze test, acute administration, MK-801-treated rats. The following applies: MK-801 0.2 mg/kg i.p., mean ± S.E.M. Type of data set: in vivo, SD rats. As for the experimental part:
SD rats (200–250 g, 8 animals/ group) were trained continuously until all rats found the platform within 30 sec, and the training time depended on the training results. […]. Then, all animals were intraperitoneal injections of 0.9% saline or MK-801 (0.2 mg/kg, i.p.) 30 minutes before the test. The test was started and the escape latency of rats was measured during the test in which platform was not withdrawn. A trial was deemed complete as soon as the rat had located platform or when 60 s had elapsed, whichever occurred first. The swimming activity of each rat was monitored by TopScan monitoring system. At the end of each trial, the maze was cleaned. The maze was rotated by clockwise after each training day to avoid potential intramaze cues (odour trails, etc.)[38].

In a further data set the target is T2, human H1 receptor (Homo sapiens, UniProt P35367).
T2 construct: expressed in transfected cells; host or cells: HEK-293
T2 sequence (P35367 whole entry): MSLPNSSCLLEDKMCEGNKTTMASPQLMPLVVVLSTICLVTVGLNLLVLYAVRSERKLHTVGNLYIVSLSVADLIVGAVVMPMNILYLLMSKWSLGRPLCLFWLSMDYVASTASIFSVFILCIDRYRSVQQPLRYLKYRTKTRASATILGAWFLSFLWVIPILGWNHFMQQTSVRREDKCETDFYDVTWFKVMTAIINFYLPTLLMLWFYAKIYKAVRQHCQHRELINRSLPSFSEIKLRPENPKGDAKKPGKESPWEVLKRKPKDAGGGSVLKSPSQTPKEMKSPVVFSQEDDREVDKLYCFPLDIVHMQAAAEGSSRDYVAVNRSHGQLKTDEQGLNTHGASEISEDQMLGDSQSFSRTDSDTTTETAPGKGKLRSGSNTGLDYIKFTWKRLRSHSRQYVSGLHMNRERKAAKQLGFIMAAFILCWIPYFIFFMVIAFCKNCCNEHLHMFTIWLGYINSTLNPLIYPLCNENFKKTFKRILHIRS
The experiment in a line: Radioligand binding assay, H1 receptor. The following applies: radioligand displacement, transfected HEK-293 cells; read-out: Receptor binding affinity (Ki), H1. The protocol:
as §1

The next data set addresses human 5-HT2A receptor (Homo sapiens, UniProt P28223). The data set can be described thus: Radioligand binding assay, 5-HT2A receptor. The following applies: radioligand displacement, transfected HEK-293 cells; read-out: Receptor binding affinity (Ki), 5-HT2A.
The target of the next data set is T3, human 5-HT6 receptor (Homo sapiens, UniProt P50406).
T3 construct: expressed in transfected cells; host or cells: HEK-293
T3 sequence (P50406 whole entry): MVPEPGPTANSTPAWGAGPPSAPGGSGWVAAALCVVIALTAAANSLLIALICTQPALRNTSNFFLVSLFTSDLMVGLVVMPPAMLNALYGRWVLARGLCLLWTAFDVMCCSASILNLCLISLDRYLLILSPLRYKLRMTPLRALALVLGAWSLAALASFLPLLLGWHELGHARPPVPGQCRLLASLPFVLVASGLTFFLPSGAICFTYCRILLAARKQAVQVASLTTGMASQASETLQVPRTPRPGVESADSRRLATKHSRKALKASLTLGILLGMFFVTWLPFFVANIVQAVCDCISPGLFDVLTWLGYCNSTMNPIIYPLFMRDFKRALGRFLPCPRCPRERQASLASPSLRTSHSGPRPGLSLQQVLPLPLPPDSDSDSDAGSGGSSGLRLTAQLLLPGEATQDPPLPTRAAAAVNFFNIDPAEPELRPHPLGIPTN
The experiment in a line: Radioligand binding assay, 5-HT6 receptor. Conditions: radioligand displacement, transfected HEK-293 cells; read-out: Receptor binding affinity (Ki), 5-HT6. As for the experimental part: as §1

The subject of data set [3] is MK-801-induced locomotor hyperactivity in rats. The data set can be described thus: Inhibition of MK-801-induced hyperactivity. Type of data set: in vivo, SD rats. The following applies: mean ± S.E.M.; for distance travelled: MK-801 0.3 mg/kg i.p. The protocol: […]. […] Animals were returned to the activity chambers after the intraperitoneal injection, and locomotor activity as quantitated as the distance travelled (mm) was recorded for 10 to 20 minutes using the TopScan monitoring system. At the end of each trial, the faecal boli were cleaned to avoid the potential influence of intramaze cues (odour trails, etc.) on the rats[36].

Data set [4] relates to MK-801-treated rats. The data set can be described thus: Morris water maze test, subchronic administration, MK-801-treated rats. Format: in vivo, SD rats. Conditions: MK-801 0.3 mg/kg i.p. day 15–28, mean ± S.E.M. As for the experimental part:
The MWM test was started after the last injection. Each rat was trained in 4 trials per day for 5 consecutive days. The escape latency to find the submerged escape platform in the water maze was recorded with the TopScan monitoring system. Each training session lasted for a maximum of 60 s. If the escape latency exceeded 60 s, it was recorded as 60 s and the rat was manually guided to the platform. On day 6, the platform was removed and each rat was allowed to swim freely for 60 s.

The next data set has as its target T4, human 5-HT7 receptor (Homo sapiens, UniProt P34969).
T4 construct: expressed in transfected cells; host or cells: HEK-293
The data set can be described thus: Radioligand binding assay, 5-HT7 receptor. The following applies: radioligand displacement, transfected HEK-293 cells; read-out: Receptor binding affinity (Ki), 5-HT7. The protocol:
as §1

The structures appear in SMILES notation.

human 5-HT2A receptor, sequence (P28223 whole entry): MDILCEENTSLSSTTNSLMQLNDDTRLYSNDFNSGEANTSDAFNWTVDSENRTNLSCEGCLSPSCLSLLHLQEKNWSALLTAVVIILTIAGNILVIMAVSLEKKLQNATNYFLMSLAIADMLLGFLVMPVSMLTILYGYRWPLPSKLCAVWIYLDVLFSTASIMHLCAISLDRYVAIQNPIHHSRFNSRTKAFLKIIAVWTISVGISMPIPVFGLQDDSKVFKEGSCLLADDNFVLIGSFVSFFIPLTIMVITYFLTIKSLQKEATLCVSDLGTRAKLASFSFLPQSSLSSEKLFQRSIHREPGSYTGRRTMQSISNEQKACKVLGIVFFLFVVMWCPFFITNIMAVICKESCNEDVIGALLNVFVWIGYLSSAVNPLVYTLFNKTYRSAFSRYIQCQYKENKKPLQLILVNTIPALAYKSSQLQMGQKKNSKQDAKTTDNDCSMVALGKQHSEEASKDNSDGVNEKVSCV
T4 sequence (P34969 whole entry): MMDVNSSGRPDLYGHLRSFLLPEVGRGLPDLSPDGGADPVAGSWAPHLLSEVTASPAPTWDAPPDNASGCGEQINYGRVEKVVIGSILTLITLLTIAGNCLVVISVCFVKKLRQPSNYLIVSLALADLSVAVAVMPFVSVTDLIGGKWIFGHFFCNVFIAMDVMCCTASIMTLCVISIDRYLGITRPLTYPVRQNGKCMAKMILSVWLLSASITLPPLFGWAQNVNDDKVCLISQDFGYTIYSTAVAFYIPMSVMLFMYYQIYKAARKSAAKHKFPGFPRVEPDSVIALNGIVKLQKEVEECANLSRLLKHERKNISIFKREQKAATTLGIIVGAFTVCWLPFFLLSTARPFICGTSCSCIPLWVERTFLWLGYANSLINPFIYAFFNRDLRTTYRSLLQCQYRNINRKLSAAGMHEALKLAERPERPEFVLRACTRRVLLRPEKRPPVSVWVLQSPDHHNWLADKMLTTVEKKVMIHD

Regarding `O=C1COc2ccc(OCCCCN3CCN(c4cccc(Cl)c4Cl)CC3)cc2N1` [PCC0104005], the Ki on human 5-HT2C receptor worked out at 36 nM; on human H1 receptor, 1.1 nM; at human 5-HT2A receptor it was 5.1 nM; on human 5-HT6 receptor, 85 nM; at human 5-HT7 receptor, 5 nM. Further, the “forelimb catalepsy duration (longest)” value is given as 22.56 ± 2.65 s in the data set with mice (2 mg/kg), 25.89 ± 3.59 s with mice (4 mg/kg) and 21.23 ± 2.53 s in the data set on mice (8 mg/kg). The “number of head twitches” value in data set [1] (3.0 mg/kg oral 1 h before test) came out at 24.86 ± 4.35; in data set [1] (6.0 mg/kg oral 1 h before test) it was 10.71 ± 4.81; in data set [1] ([…] oral 1 h before test) it was 20.17 ± 2.70. In addition, the escape latency amounted to 18.35 ± 2.76 s in the data set with MK-801-treated rats [2] (3.0 mg/kg oral 1 h before test); 17.45 ± 1.78 s with MK-801-treated rats [2] (6.0 mg/kg oral 1 h before test); 20.60 ± 1.30 s in the data set on MK-801-treated rats [2] ([…] oral 1 h before test); 11.45 ± 2.70 s with MK-801-treated rats [4] (3.0 mg/kg oral for 28 days); 14.88 ± 2.95 s in the data set on MK-801-treated rats [4] (6.0 mg/kg oral for 28 days). Further, the distance travelled in data set [3] (3.0 mg/kg oral 1 h before test) is 2646 ± 235.2 mm; in [3] (6.0 mg/kg oral 1 h before test), 2655 ± 286.5 mm; in data set [3] ([…] oral 1 h before test), 3284 ± 220.7 mm. The “distance travelled (spontaneous activity)” value in data set [3] (administered alone without MK-801, dose not stated) was 1885 ± 269.7 mm.
